“Also recorded” adds a separate entry of the source.
Columns and labels:
[1] = ThT fibril formation assay comparing kinetics of Aβ40 wild-type and Aβ40-E22Δ (Osaka) mutant; settings: standard ThT fibril formation conditions, peptide alone
Procedure: FIG. 5 depicts a ThT fibril formation assay comparing fibril formation kinetics of Aβ40 wild-type and the Aβ40-E22Δ (Osaka) FAD mutant.
FIG. 5 illustrates exemplary data of preliminary experiments in which Aβ40-E22Δ was synthesized and subjected to standard conditions utilized in ThT fibril formation assays. FIG. 5 illustrates that the deletion of the E22 residue leads to a pronounced acceleration of fibril formation, which dropped from 196±7 min with Aβ40-WT to 38±1 min with Aβ40-E22Δ. The Aβ40-E22Δ mutant is much more amyloidogenic than Aβ40-WT, which may complicate efforts to block its amyloidogenicity.

P. aeruginosa = test: Activity against P. aeruginosa; type: cell-based
M tuberculosis = test: Activity against M tuberculosis; type: cell-based
S. aureus = test: Activity against S. aureus; type: cell-based
HSV-1 = test: Antiviral activity (inactivation) against HSV-1; type: cell-based, Herpes Simplex Virus-1
C. albicans = test: Activity against C. albicans; type: cell-based
Aβ40 = target: T1, Aβ40 (Homo sapiens, UniProt P05067); test: Thioflavin T (ThT) fluorescence assay of Aβ40 fibril formation in presence of LL-37 or peptoid; type: biochemical
T1 construct: The 40 AA long isoform, Aβ40, is formed predominantly
T1 sequence (P05067 672-711 limits assumed): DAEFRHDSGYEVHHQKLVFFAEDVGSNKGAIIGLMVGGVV

P. gingivalis = test: Antimicrobial activity against P. gingivalis; type: cell-based, Porphyromonas gingivalis

Aβ40-E22Δ: FAD-causing Aβ40 variant with deletion of E22, known as the Osaka mutation (DAEFRHDSGYEVHHQKLVFFADVGSNKGAIIGLMVGGVV; Amyloid-beta protein 40; UniProt P05067 672-711, looked up, variant E22*)
fibril formation (time) in ThT assay [1]: 38 ± 1 min

Aβ40-WT: 40 amino acid long wild-type isoform of Amyloid β
fibril formation (time) in ThT assay [1]: 196 ± 7 min

H-(NLys-Nspe-Nspe)4-NH2 [Peptoid 1]
activity against pathogen (P. aeruginosa): active | activity against pathogen (M tuberculosis): active | activity against pathogen (S. aureus): active | concentration with antiviral activity / totally inactivating HSV-1 virus (HSV-1): 4 µg/mL | activity against pathogen (C. albicans): active | anti-amyloid activity (prevention of Aβ amyloid formation) (Aβ40; FIG. 1C, 20 μM peptide/peptoid concentrations): shares the same anti-amyloid activity | concentration with antimicrobial activity / killing P. gingivalis bacteria (P. gingivalis): 4 µg/mL

LL-37: peptide produced by the human innate immune system, ~4500 g/mol, 37 amino acids
Aβ fibril formation (ThT fluorescence) (Aβ40; 1:1 equimolar ratio to wildtype Aβ40): totally prevented from forming Aβ fibrils; also recorded: blocks fibril formation | kinetics of Aβ fibril formation (ThT fluorescence) (Aβ40; lower relative (sub-stoichiometric) molar amounts vs Aβ40): slow the kinetics of fibril formation; also recorded: slows it down in a dose-dependent manner | final fluorescence at endpoint in ThT fibril formation assay (Aβ40; sub-stoichiometric LL-37 addition): higher fluorescence output at endpoint

Reference: US20230390222A1, “Amyloid-Binding Peptoids with Broad-Spectrum Antiviral, Antibacterial, and Antifungal Activity” (The Board of Trustees of the Leland Stanford Junior …, priority 2021, published 2023)
